Experimental data from patent EP3666760B1, “5-THIOISTIDINE COMPOUNDS AND METHYLATED DERIVATIVES (OVOTHIOLS) AS INHIBITORS OF GAMMA-GLUTAMYL-TRANSPEPTIDASE (GGT) ACTIVITY” (Stazione Zoologica "Anton Dohrn", priority 2018, dated 2020).
Like-named read-outs stand apart in the source and are kept apart here.

Tests used:
EqGGT = EqGGT (Equus caballus, UniProt A0A9L0SYL6); assay: GGT activity assay (colorimetric, GpNA donor / glycyl-glycine acceptor), IC50; type: biochemical, horse
Protocol: (§1) GGT activity assay: GGT activity was determined by a colorimetric test. The analysis buffer contains 100 mM Tris-HCl pH 7.8 or PBS 1X pH 7.4. Each reaction contains 1 mM of γ-glutamyl-para-nitroanilide (GpNA) as a donor substrate and 40 mM glycyl-glycine (glygly) as an acceptor substrate. The enzyme GGT purified from murine tissues or human cells, or from equine sources (purchased from Sigma) was added at the end to start the test. The formation of the product, p-nitroaniline, was continuously monitored at room temperature at 405 nm using a Bio-Rad 680 microplate reader with the Microplate Manager 5.2 software (Bio-Rad). One unit of GGT activity was defined as the amount of GGT that released 1 µmοl of p-nitroaniline/min at room temperature. The molecules tested as inhibitors, Erg, DON and DTT were purchased by Sigma Aldrich.
(§2) The enzymatic activity assays were carried out using the Tate & Meister spectrophotometric assay, using the γ-glutamyl-para-nitroanilide chromogen (GpNA) as a donor substrate, glycyl-glycine as a substrate and a purified commercial GGT solution as a biocatalyst from horse (EqGGT) with a high % identity with the human one. These assays were also performed in the presence of GGT isolated directly from the hepatic mouse tissues and/or from human cell cultures (hGGT). The inhibition of EqGGT and hGGT by 5-thio and ovothiol A was compared with that of Erg and the GGT DON commercial inhibitor. […] Instead, the already known GGT inhibitors are toxic at much lower concentrations.

HEK293 = assay: Cell toxicity in human cell lines; type: cell-based; details: up to concentrations of 200 µM; HEK293 (renal embryonic origin)
GGT = GGT (Equus caballus, UniProt A0A9L0SYL6); assay: Kinetics of GGT inhibition (Ki) varying donor GpNA or acceptor Gly-Gly concentration; type: biochemical, horse; details: for type of inhibition: both with respect to the acceptor substrate and to the donor substrate, Vmax decreases, km almost unchanged; for Ki: average of Michaelis-Menten and Lineweaver-Burk
Sequence of GGT (A0A9L0SYL6 entry or part of it): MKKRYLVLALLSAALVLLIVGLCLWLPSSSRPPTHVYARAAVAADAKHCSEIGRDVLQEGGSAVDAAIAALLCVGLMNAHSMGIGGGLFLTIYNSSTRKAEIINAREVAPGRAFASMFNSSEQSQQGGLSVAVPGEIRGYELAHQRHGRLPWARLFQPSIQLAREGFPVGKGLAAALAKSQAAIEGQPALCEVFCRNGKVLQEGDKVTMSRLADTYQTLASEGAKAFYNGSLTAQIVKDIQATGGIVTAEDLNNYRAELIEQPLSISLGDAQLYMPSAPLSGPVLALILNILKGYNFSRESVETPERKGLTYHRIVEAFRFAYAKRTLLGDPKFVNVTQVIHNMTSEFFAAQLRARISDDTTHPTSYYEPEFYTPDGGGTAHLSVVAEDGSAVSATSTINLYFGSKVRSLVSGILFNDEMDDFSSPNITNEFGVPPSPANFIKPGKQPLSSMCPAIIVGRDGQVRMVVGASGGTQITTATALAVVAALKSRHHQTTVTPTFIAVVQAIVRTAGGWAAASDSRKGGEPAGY
Protocol: as §1, §2
The inhibition constants Ki and GGT inactivation rate for 5-thio and ovothiol A were determined by varying both the concentrations of the GpNA donor substrate and maintaining the Gly-Gly acceptor concentrations fixed and vice versa, as shown in Figure 2. Ki (dissociation constant related to E) was calculated as a function of Vmax. For all the compounds the Vmax decreases as the concentration of inhibitor increases, while the km remains almost unchanged.

keratinocytes HaCat = assay: Cell toxicity in human cell lines; type: cell-based; details: up to concentrations of 200 µM
[1] = read-out: Ki (GpNA), varying donor substrate GpNA, Gly-Gly fixed

Sequence of EqGGT (A0A9L0SYL6 entry or part of it): as above

In the case of `NC(Cc1[nH]cnc1SSc1nc[nH]c1CC(N)C(=O)O)C(=O)O` (stereo not shown), the IC50 (EqGGT; concentration inducing 50% inhibition of GGT activity, 1 mM GpNA, 40 mM glycyl-glycine, ovothiol A and 5-thio as disulfide, read-out: IC50) is reported as 13 µM, the “times more active than Erg and DON in inhibiting GGT activity” value (EqGGT; disulfide forms) is reported as 10-20 times and the cell toxicity (HEK293) is reported as “no cell toxicity”. The type of inhibition (GGT) was “non-competitive inhibitors”, the Ki (GGT; varying acceptor substrate Gly-Gly, GpNA fixed, read-out: Ki (gly-gly)) was 17.4 ± 6.1 µM and the Ki (GGT; varying donor substrate GpNA, Gly-Gly fixed, read-out: Ki (GpNA)) was 6.9 ± 2.91 µM. The cell toxicity (keratinocytes HaCat) was “no cell toxicity”.
Work on `[N-]=[N+]=CC(=O)CC[C@H](N)C(=O)O` [DON, 6-diazo-5-oxo norleucine, reference compound] yielded an IC50 (EqGGT) of 250 µM, a Ki (GGT; [1]) of 156 ± 15.3 µM and a Ki (GGT; read-out: Ki (gly-gly), varying acceptor substrate Gly-Gly, GpNA fixed) of 200 ± 62.7 µM.
`C[N+](C)(C)C(Cc1cnc(S)[nH]1)C(=O)[O-]` (stereo not drawn) [Erg, N-alpha-trimethyl-2-thiohistidine, reference compound] was tested, and the IC50 (EqGGT; concentration inducing 50% inhibition of GGT activity, 1 mM GpNA, 40 mM glycyl-glycine, ovothiol A and 5-thio as disulfide) was 277 µM, the type of inhibition (GGT) was “non-competitive inhibitors” and the Ki (GGT; [1]) was 229 ± 53.9 µM.
